# Experiments:
# mice = experiment: Hot plate test (analgesic effect) in mice; type: in vivo; details: for response time: nanoparticles by ethanol injection, encapsulated groups pre-injected with pyridostigmine 0.5 mg/kg; for analgesic effect: i.v. 20 mg/Kg
# Procedure: The response of mice to a transient painful stimulus was measured following administration of the test material (either i.v. into the tail vein or per os by gavages). The analgesic effect was determined by placing the mouse on a hot plate (55° C., IITC model 39) and recording the time for withdrawing/licking the hind limb (hot plate test). To prevent tissue damage and suffering of the animal, the experiment was terminated after 20 sec if no response was evoked. The response latencies were recorded and either used by themselves for comparison or normalized as percent of maximal possible effect (MPE) using the equation: […]
# where: RT—is the response latency after treatment; RT0—is the response latency of a mouse without treatment and RTmax—is the maximal response time allowed (20 sec).
# Derivative 4-nanoparticles comprising leu-enkephalin, prepared as described in Example 9 by FHS (film hydration flowed by sonication), were administered to mice and their ability to exert an analgesic effect was measured by the hot plate test described in Methods.
# Nanoparticles were made from 10 mg/ml Derivative 4 with cholesterol and cholesteryl hemisuccinate as additives (2:1:1) and 10% molar ratio chitosan (CS)-vernolic acid conjugate in presence of 2.5 mg/ml leu-enkephalin. In these nanoparticles, CS-vernolic acid conjugate serves as a pendant on the nanoparticles/vesicles in order to enhance penetrability.
# Nanoparticles were injected into the tail vein at a dose of 20 mg/kg bolaamphiphile, which corresponds to 5 mg/kg leu-enkephaime. Empty nanoparticles and free leu-enkephalin injected in a dose of 20 mg/kg, were used as a negative control and morphine at a dose of 5 mg/kg was used as a positive control. Mice were pretreated with 0.5 mg/kg pyridostigmine 15 min prior to the injection of the nanoparticles. Pyridostigmine inhibits the activity of acetylcholine esterase and thus prevents hydrolysis of the acetyl choline headgroups in the periphery.
# Analgesic effect studies (hot plate test) in mice were carried out using nanoparticles comprising Derivative 1 or Derivative 4 and prepare by the ethanol injection technique described in Example 10. The hot plate test was preformed as described in Example 19. All mice treated with encapsulated leu-enkephalin, were pre-injected with the periphery acetylcholine esterase inhibitor pyridostigmine (0.5 mg/kg).
# The efficacy of delivering leu-enkephalin in various nanoparticles in oral formulations versus i.v. injectable formulations were tested (a hot plate test of Example 20). Thus, formulations comprising leu-enkephalin encapsulated in the following nanoparticles were prepared: (a) nanoparticles comprising Derivative 4, cholesterol, cholesteryl hemisuccinate and vernolyl-chitosan prepared according to Example 13(i); (b) nanoparticles comprising distearyl phosphatidyl choline (DSPC) as the amphiphilic compound, cholesterol, prepared as described in Example 13(iii).
# Formulations comprising […] leu-enkephalin loaded nanoparticles were administered by gavages at a dose of 100 mg/kg bolaamphiphile, which corresponds to 25 mg/kg leu-enkephalin. The same dose of free leu-enkephalin was administered by gavages as a control. The results were compared to liposomes made from 20 mg/ml DSPC in presence of 5 mg/ml leu-enkephalin and administered at a dose of 200 mg/kg phospholipid, which corresponds to 50 mg/kg leu-enkephalin. The mice were preinjected with pyridostigmine as in example 20. The results, are shown in FIG. 2, represent the analgesic effect as percent of maximal possible response (MPE).
# In order to assess an optimized delivery and targeted release efficiencies, the analgesic effect of formulations containing nanoparticles comprising Derivative 4, cholesterol, cholesteryl hemisuccinate and vernoyl chitosan as additives (chitosan nanoparticles), and various amounts of leu-enkephalin was studied by the hot plate test. Nanoparticles were prepared as described in Example 15. […]
# [1] = Percentage of encapsulation in bolaamphiphile vesicles; type: physicochemical
compound,measurement,setting,value
"CN(C)C(=O)Oc1ccc[n+](C)c1.[Br-] [pyridostigmine, 3-(Dimethylamino-carbonyloxy)-1-methylpyridinium bromide]",analgesic response of pyridostigmine by itself,mice; 0.5 mg/kg,does not evoke an analgesic response
5(6)-Carboxyfluorescein [CF],percentage of CF encapsulation,"[1]; Derivative 4/cholesterol/cholesteryl hemisuccinate/PEG(201) or PEG(202) 100:25:25:10 nanoparticles, PBS pH 8.0",20%
[5-Leucine] Enkephalin [free leu-enkephalin],percentage of encapsulation at pH above pI relative to pH below pI,"[1]; Derivative 4/cholesterol/cholesteryl hemisuccinate nanoparticles, TBS pH 8.5",2 to 4 times
same,response time,mice; 10 minutes after i.v. injection,3 s
same,response time,mice; 30 minutes after i.v. injection,2 s
same,response time,mice; 60 minutes after i.v. injection,2 s
same,analgesic effect,"mice; mice pretreated with pyridostigmine, Example 27",no significant analgesic effect
same,analgesic effect,mice; Example 28,no significant analgesic effect

# Source: patent US9642803B2, “Nano-sized particles comprising multi-headed amphiphiles for targeted drug delivery” (Ben-Gurion University Of The Negev Research And Development …, priority 2009, dated 2017)
